We go through 18 molecules from patent US6653303B1, “Cycloalkyl, lactam, lactone and related compounds, pharmaceutical compositions comprising same, and methods for inhibiting β-amyloid peptide release and/or its synthesis by use of such compounds” (Athena Neurosciences, Inc., priority 1996, dated 2003).

By melting point is commonly meant the temperature, or range, at which the solid turns liquid.

Structures are written as SMILES.

As to `CN1C(=O)C(NC(=O)Cc2cc(F)cc(F)c2)N=C(c2ccccc2)c2ccccc21` (stereo not drawn), the melting point lay in the range of 236 to 239 °C. `CCN1C(=O)C(NC(=O)[C@H](C)NC(=O)Cc2cc(F)cc(F)c2)N=C(c2ccccc2)c2ccccc21` (stereo partly drawn) returned a melting point of 155 to 158 °C. Molecule `C[C@H](NC(=O)C(=O)c1cc(F)cc(F)c1)C(=O)NC1N=C(c2ccccc2)c2ccccc2N(C)C1=O` (stereo partly drawn) gave a melting point of 128 to 129 °C.

On to `CCC(=S)N[C@@H](C)C(=O)NC1N=C(c2ccccc2)c2ccccc2N(C)C1=O` (stereo partly drawn), for which the melting point was 205 to 206 °C.

For the molecule `CC(C)[C@H](NC(=O)Cc1cc(F)cc(F)c1)C(=O)NC1N=C(c2ccccc2)c2ccccc2N(C)C1=O` (stereo partly drawn), the melting point is 228 to 229 °C. For `CN1C(=O)C(NC(=O)[C@@H](NC(=O)Cc2cc(F)cc(F)c2)C(C)(C)C)N=C(c2ccccc2)c2ccccc21` (stereo partly drawn) the value was 221 to 222 °C; for `C[C@H](NC(=O)Cc1cc(F)cc(F)c1)C(=O)NC1N=C(c2ccccc2)c2ccccc2N(CC2CC2)C1=O` (stereo partly drawn), 203 to 205 °C; for `CC(Nc1ccc(Cl)c(Cl)c1)C(=O)NC1CCCNC(=O)C1` (racemic) [Example 5-31, 3-(N′-(3,4-Dichlorophenyl)-D,L-alaninyl)amino-ε-caprolactam], 199 °C. As to `C[C@H](NC(=O)C(O)c1cc(F)cc(F)c1)C(=O)NC1C(=O)N(C)c2ccccc2N(c2ccccc2)C1=O` (single isomer, unassigned), the melting point fell in the range of 255 to 256 °C. Next, `C[C@H](NC(=O)C(O)c1cc(F)cc(F)c1)C(=O)NC1N=C(c2ccccc2)c2ccccc2N(C)C1=O` (single isomer, unassigned): 240 to 241 °C; `C[C@H](NC(=O)C(F)c1cc(F)cc(F)c1)C(=O)NC1N=C(c2ccccc2)c2ccccc2N(C)C1=O` (single isomer, unassigned): 119 to 120 °C; `C[C@H](NC(=O)Cc1cc(F)cc(F)c1)C(=O)NC1C(=O)NC(c2ccccc2)c2ccccc21` (single isomer, unassigned) [Example 5-10, 4-(N′-(3,5-Difluorophenylacetyl)-L-alaninyl)amino-1-phenyl-1,2,3,4tetrahydroisoquinolin-3-one]: 200 to 205 °C. For `C[C@H](NC(=O)Cc1cc(F)cc(F)c1)C(=O)NC1C(=O)NCc2cc(F)ccc21` (single isomer, unassigned) [Example 5-12, 4(N′-(3,5-Difluorophenylacetyl)-L-alaninyl)amino-7-fluoro-1,2,3,4tetrahydroisoquinolin-3-one] the value was 195 to 200 °C; for `C[C@H](NC(=O)Cc1cc(F)cc(F)c1)C(=O)NC1Cc2ccccc2N(Cc2ccccc2)C1=O` (stereo partly drawn) [Example 5-6, 1-Benzyl-3-(N′-(3,5-difluorophenylacetyl)-L-alaninyl)amino-1,2,3,4-tetrahydroquinolin-2-one], 196 to 199 °C; for `C[C@H](NC(=O)Cc1cc(F)cc(F)c1)C(=O)NC1C(=O)NCc2ccccc21` (stereo partly drawn) [Example 5-7, 4-(N′-(3,5-Difluorophenylacetyl)-L-alaninyl)amino-1,2,3,4-tetrahydroisoquinolin-3-one], 243 to 244 °C.

`C[C@H](NC(=O)Cc1cc(F)cc(F)c1)C(=O)NC1C(=O)N(Cc2ccccc2)Cc2ccccc21` (stereo partly drawn) [Example 5-8, 4-(N′-(3,5-Difluorophenylacetyl)-L-alaninyl)amino-2-benzyl-1,2,3,4-tetrahydroisoquinolin-3-one] displayed a melting point of 144 to 145 °C. Next, `CC1NC(=O)C(NC(=O)[C@H](C)NC(=O)Cc2cc(F)cc(F)c2)c2ccccc21` (stereo partly drawn) [Example 5-9, 4-(N′-(3,5-Difluorophenylacetyl)-L-alaninyl)amino-1-methyl-1,2,3,4-tetrahydroisoquinolin-3-one]: 205 to 206 °C; `C[C@H](NC(=O)Cc1cc(F)cc(F)c1)C(=O)NC1C(=O)N(CCc2ccccc2)Cc2ccccc21` (stereo partly drawn) [Example 5-13, 4-(N′-(3,5-Difluorophenylacetyl)-L-alaninyl)amino-2-phenethyl-1,2,3,4-tetrahydroisoquinolin-3-one]: 75 to 76 °C.
